{
  "source": "patent US6653298B2",
  "about": "“Composition” (Sterix Limited, priority 2000, dated 2003)",
  "key": {"[1]": {"details": "referring to antigonadotropic properties; cited from earlier work"}, "[2]": {"details": "single oral dose 50 μg, FIG. 4; cited from earlier work"}, "[3]": {"assay": "Distribution of compound in blood (erythrocyte binding)"}, "estrogen receptor [4]": {"biological_target": "T1, estrogen receptor (Mus musculus, UniProt P19785)", "T1 construct": "using cytosolic preparations of uterine tissue of rats and mice and MCF-7 tumor cells; from tissue; host or cells: mouse uterine cytosol", "T1 sequence (P19785 1-599)": "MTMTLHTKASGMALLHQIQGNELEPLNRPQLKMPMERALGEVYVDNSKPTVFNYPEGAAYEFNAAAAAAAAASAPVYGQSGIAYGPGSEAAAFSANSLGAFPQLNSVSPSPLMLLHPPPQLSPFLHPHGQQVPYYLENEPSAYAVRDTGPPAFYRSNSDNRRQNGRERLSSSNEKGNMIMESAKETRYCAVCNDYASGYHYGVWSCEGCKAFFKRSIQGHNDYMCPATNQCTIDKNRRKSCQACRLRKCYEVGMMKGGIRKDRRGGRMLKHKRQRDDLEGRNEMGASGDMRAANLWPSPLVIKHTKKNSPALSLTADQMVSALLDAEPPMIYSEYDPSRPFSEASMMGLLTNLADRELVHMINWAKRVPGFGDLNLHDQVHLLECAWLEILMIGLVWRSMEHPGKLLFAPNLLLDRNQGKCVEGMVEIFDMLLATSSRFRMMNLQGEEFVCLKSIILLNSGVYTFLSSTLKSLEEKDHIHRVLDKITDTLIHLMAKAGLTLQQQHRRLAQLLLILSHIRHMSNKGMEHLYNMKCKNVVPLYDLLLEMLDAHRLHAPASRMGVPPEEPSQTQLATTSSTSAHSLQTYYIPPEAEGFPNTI", "assay": "Specific binding of radiolabelled J995 to estrogen receptor of mice", "procedure": "(§1) Oestradiol Sulfamate (J995) was investigated with respect to its hormonal properties in vitro and in vivo. In vitro studies included the evaluation of its specific binding to oestrogen receptors using cytosolic preparations of uterine tissue of rats and mice and MCF-7 tumor cells. In vivo studies were performed on several animal species including intact and ovariectomised rats and cynomolgus monkeys. These species served for detailed pharmacodynamic and pharmacokinetic studies at parenteral and oral administration of the compound."}, "[5]": {"assay": "Clinical pharmacokinetics after oral administration in postmenopausal women", "format": "in vivo, human", "procedure": "Studies in the human were performed with oral administration of the compound in postmenopausal women. Several doses at single and multiple administration were evaluated. […] studies were performed with solutions in oily vehicles for parenteral administration. Oral treatment was performed with suspensions of cristalline J995 in aquaeous vehicle. Clinical studies were performed with amorphous drug substance galenically formulated with a mixture of conventional ingredients as capsules or tablets."}, "estrogen receptor [6]": {"tested_on": "estrogen receptor", "assay": "In vitro estrogen receptor binding / displacement of radiolabelled oestradiol", "procedure": "as §1"}, "estrogen receptor [7]": {"biological_target": "T2, estrogen receptor (Rattus norvegicus, UniProt P06211)", "T2 construct": "using cytosolic preparations of uterine tissue of rats and mice and MCF-7 tumor cells; from tissue; host or cells: rat uterine cytosol", "T2 sequence (P06211 1-600)": "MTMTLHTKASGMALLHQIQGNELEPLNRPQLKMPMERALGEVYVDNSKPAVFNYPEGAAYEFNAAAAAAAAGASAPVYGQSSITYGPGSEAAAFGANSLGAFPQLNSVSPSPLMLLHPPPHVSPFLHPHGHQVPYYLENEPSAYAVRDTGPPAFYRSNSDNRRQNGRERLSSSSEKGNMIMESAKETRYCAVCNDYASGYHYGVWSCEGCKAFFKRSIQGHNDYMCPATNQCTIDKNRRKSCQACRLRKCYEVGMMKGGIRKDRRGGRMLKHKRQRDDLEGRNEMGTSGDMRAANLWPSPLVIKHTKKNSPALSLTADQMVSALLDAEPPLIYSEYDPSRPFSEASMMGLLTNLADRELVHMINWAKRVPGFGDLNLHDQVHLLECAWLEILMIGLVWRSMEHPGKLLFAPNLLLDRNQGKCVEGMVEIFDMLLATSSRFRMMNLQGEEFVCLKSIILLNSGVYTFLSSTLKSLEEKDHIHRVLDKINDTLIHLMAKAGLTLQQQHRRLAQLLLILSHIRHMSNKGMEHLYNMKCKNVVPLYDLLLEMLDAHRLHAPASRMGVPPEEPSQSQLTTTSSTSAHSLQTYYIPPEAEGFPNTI", "assay": "Specific binding of radiolabelled J995 to estrogen receptor of rats", "procedure": "as §1"}, "estrogen receptor [8]": {"biological_target": "T3, estrogen receptor (Homo sapiens, UniProt P03372)", "T3 construct": "using cytosolic preparations of uterine tissue of rats and mice and MCF-7 tumor cells; endogenous in cells; host or cells: MCF-7 cytosol", "T3 sequence (P03372 1-595)": "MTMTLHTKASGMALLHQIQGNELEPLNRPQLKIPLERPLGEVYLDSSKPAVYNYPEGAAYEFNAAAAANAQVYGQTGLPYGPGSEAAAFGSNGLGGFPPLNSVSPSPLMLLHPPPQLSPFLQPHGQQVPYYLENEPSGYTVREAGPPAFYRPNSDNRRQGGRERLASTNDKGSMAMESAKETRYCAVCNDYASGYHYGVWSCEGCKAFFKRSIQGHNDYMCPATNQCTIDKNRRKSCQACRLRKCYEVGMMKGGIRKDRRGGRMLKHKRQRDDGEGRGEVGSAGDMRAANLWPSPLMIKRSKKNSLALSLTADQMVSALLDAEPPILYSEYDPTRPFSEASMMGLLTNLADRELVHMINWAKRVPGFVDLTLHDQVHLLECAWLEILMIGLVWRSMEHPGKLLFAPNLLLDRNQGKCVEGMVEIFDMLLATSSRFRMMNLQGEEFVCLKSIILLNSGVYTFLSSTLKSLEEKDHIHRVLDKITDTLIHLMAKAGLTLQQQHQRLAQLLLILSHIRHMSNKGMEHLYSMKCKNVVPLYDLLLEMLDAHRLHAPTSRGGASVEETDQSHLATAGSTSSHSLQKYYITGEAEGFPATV", "assay": "Specific binding of radiolabelled J995 to human estrogen receptor", "procedure": "as §1"}, "[9]": {"details": "single oral dose of 0.5 mg, FIG. 11"}, "[10]": {"details": "single oral dose of 0.5 mg, over 5 days, FIG. 11"}},
  "data": [
    {"smiles": "C#C[C@]1(O)CC[C@H]2[C@@H]3CCc4cc(O)ccc4[C@H]3CC[C@@]21C", "note": "[EE, ethinyl estradiol]", "values": [
      {"measurement": "oestrogenicity in the liver relative to orally applied natural estrogens", "setting": "[1]", "result": "4 to 18", "unit": "times"},
      {"measurement": "definition of blood levels (individual variation)", "setting": "[2]", "result": "does not lead to well defined blood levels"}
    ]},
    {"smiles": "C[C@]12CC[C@@H]3c4ccc(OS(N)(=O)=O)cc4CC[C@H]3[C@@H]1CC[C@@H]2O", "note": "[J995, oestradiol-3-sulphamate]", "values": [
      {"measurement": "amount circulating in the erythrocyte compartment", "setting": "[3]", "result": "98-99%"},
      {"measurement": "specific binding of radioactively labelled compound to estrogen receptor", "setting": "estrogen receptor [4]", "result": "no specific binding"},
      {"measurement": "factor by which metabolite oestrone sulphate stays lower than under Oestradiol Valerate treatment", "setting": "[5]; FIG. 5: single oral 2 mg J995 vs multiple doses 2 mg E2V", "result": "≥ 10"},
      {"measurement": "constancy of blood levels of oestrogens", "setting": "[5]; FIGS. 5-10", "result": "very constant, long lasting blood levels"},
      {"measurement": "oestradiol levels compared with Oestradiol Valerate at the same dose", "setting": "[5]; FIGS. 6, 7", "result": "higher and much longer lasting oestradiol levels"},
      {"measurement": "oestrone sulphate levels in wash out phase", "setting": "[5]; after 14 days of 100 μg per day, wash out phase over 144 hours, FIG. 9", "result": "almost constant oestrone sulphate levels"},
      {"measurement": "orally administered compound reaching the erythrocyte pool", "setting": "[5]; oral", "result": "~100", "unit": "%"},
      {"measurement": "prodrug appearing as oestrone and oestradiol in the circulation", "setting": "[5]; oral, FIG. 11", "result": "more than 50%"},
      {"measurement": "total ES amount in blood", "setting": "[5]; [9]", "result": "≈ 500 μg/5 L blood"},
      {"measurement": "total ES concentration per blood volume", "setting": "[5]; [9]", "result": "~100", "unit": "μg/L blood"},
      {"measurement": "total ES erythrocyte conc.", "setting": "[5]; [9]", "result": "Ca. 200 ng/mL erythrocytes"},
      {"measurement": "E1S plasma level", "setting": "[5]; [10]", "result": 700, "unit": "pg/mL"},
      {"measurement": "E1 plasma level", "setting": "[5]; [10]", "result": 40, "unit": "pg/mL"},
      {"measurement": "Clearance of E1S calculated (amount)", "setting": "[5]; single oral dose of 0.5 mg, 110 l×700 ng/l/day", "result": 385, "unit": "μg/5 days"},
      {"measurement": "Clearance of E1 calculated (amount)", "setting": "[5]; single oral dose of 0.5 mg, 1870 l×40 ng/l/day", "result": 374, "unit": "μg/5 days"},
      {"measurement": "displacement of specifically bound radioactively labelled Oestradiol", "setting": "estrogen receptor [6]; huge excess of J995", "result": "unable to displace specifically bound radioactively labelled Oestradiol"},
      {"measurement": "affinity to the estrogen receptor", "setting": "estrogen receptor [6]; in vitro", "result": "no affinity to the estrogen receptor"},
      {"measurement": "specific binding of radioactively labelled compound to estrogen receptor", "setting": "estrogen receptor [7]", "result": "no specific binding"},
      {"measurement": "specific binding of radioactively labelled compound to estrogen receptor", "setting": "estrogen receptor [8]", "result": "no specific binding"}
    ]}
  ]
}
